Experimental data: patent US12649723B2, “Carbonohydrazonoyl dicyanide compounds comprising 2 or more aryl or heteroaryl connected via linker and use thereof” (KOREA INSTITUTE OF SCIENCE AND TECHNOLOGY, priority 2020, dated 2026)

Assays:
[1] = biological target: T1, tau protein (Homo sapiens, UniProt P10636); assay: Tau-BiFC cell model: inhibition of tau protein aggregation; format: cell-based; conditions: for remaining activity at 10 µM / remaining activity at 3 µM: 48 h, Forskolin-only group = 100% tau protein-aggregated state; for remaining activity at 10 µM: compound 10 μM, BiFC fluorescence, read-out: Response (% @10 μM); for IC50: Tau BiFC in cells, with Forskolin 30 μM, 48 hours; for remaining activity at 3 µM: compounds marked *: measured at 3 μM, read-out: Response
T1 construct: fused on or other part: Split fluorescent-protein halves for BiFC are fused to tau; In the published tau-BiFC line these are Venus VN173 and VC155
Procedure, shortened: (§1)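 Aggregation was induced by 30 μM Forskolin co-applied with test compound for 48 h, with screening at 1, 3, 10 μM and dose-response at 0.03–30 μM. Nuclei were stained with Hoechst (2 μg/mL) and counted against Forskolin-only wells for cytotoxicity. Inhibition came from BiFC fluorescence relative to Forskolin-only versus untreated cells, with IC50 by nonlinear regression.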

[2] = tested on: Tau-BiFC cells; assay: Cell viability (cytotoxicity) in tau-BiFC cells, count of stained nuclei; format: cell-based; conditions: Forskolin-only group = 100% cell viability; for Cell viability (% @10 μM): compound 10 μM; for Cell viability: compounds marked *: measured at 3 μM
Procedure, shortened: as §1

[3] = biological target: T2, CYP1A2 (Homo sapiens, UniProt P05177); assay: Inhibitory effect on CYP coenzyme activity, human liver microsomes; format: in vitro ADME; conditions: compound 10 μM; human liver microsomes 0.25 mg/mL; substrate phenacetin; 15 minutes
T2 construct: human liver microsomes (0.25 mg/mL); from tissue; host or cells: human liver microsomes
T2 sequence (P05177 1-516): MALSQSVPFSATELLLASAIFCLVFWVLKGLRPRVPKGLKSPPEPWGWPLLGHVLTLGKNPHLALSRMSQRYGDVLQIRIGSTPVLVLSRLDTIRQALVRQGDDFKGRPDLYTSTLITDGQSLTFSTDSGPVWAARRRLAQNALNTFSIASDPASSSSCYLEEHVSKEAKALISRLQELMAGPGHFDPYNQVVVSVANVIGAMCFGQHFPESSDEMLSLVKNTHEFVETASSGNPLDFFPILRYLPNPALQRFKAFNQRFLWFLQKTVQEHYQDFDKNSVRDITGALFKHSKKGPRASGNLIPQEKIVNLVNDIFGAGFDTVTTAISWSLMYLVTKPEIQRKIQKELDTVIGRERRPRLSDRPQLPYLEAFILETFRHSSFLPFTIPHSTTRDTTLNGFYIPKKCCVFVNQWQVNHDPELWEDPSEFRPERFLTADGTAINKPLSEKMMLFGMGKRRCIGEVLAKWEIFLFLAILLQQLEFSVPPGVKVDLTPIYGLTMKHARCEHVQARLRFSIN
Procedure: (§2) The inhibitory effects of the compounds prepared according to Examples 1 to 175 on CYP coenzyme activity were identified. Specifically, human liver microsomes (0.25 mg/mL), a 0.1 M phosphate buffer solution (pH 7.4), a substrate drug cocktail of five types of drug metabolism enzymes (50 μM phenacetin, 10 μM diclofenac, 100 μM S-mephenytoin, 5 μM dextromethorphan, and 2.5 μM midazolam), and the compound at a concentration of 0 μM or 10 μM were mixed and pre-cultured at 37° C. for 5 minutes, and then further cultured at 37° C. for 15 minutes together with an NADPH generation system solution added thereto. Thereafter, the reaction was terminated by adding an acetonitrile solution containing an internal standard material (terfenadine) and centrifuged for 5 minutes (14,000 rpm, 4° C.), and then a supernatant was injected into an LC-MS/MS system for simultaneous analysis of metabolites of the substrate drugs to thereby evaluate the inhibitory effects on drug metabolism.
(§3) Metabolites of each CYP coenzyme indicator drug generated through the reaction were analyzed using the Shimadzu Nexera XR system and TSQ Vantage (Thermo). In an HPLC column, Kinetex C18 (2.1 mm×100 mm, 2.6 μm, particle size; Phenomenex, USA) was used, and mobile phases were (A) distilled water containing 0.1% formic acid and (B) acetonitrile containing 0.1% formic acid, and a gradient program shown in Table 3 was applied thereto.
(§4) The generated metabolites were quantified using a multiple reaction monitoring (MRM) quantification mode, and Xcalibur (version 1.6.1) was used for data analysis. Inhibitory effects of the novel compound prepared according to the examples of the present invention on CYP coenzyme activity are shown in Table 4 below.

[4] = biological target: T3, CYP2C19 (Homo sapiens, UniProt P33261); assay: as above; format: in vitro ADME; conditions: compound 10 μM; human liver microsomes 0.25 mg/mL; substrate S-mephenytoin; 15 minutes
T3 construct: human liver microsomes (0.25 mg/mL); from tissue; host or cells: human liver microsomes
Procedure: as §2, §3, §4

[5] = biological target: T4, CYP2C9 (Homo sapiens, UniProt P11712); assay: as above; format: in vitro ADME; conditions: compound 10 μM; human liver microsomes 0.25 mg/mL; substrate diclofenac; 15 minutes
T4 construct: human liver microsomes (0.25 mg/mL); from tissue; host or cells: human liver microsomes
Procedure: as §2, §3, §4

[6] = biological target: T5, CYP2D6 (Homo sapiens, UniProt P10635); assay: as above; format: in vitro ADME; conditions: compound 10 μM; human liver microsomes 0.25 mg/mL; substrate dextromethorphan; 15 minutes
T5 construct: human liver microsomes (0.25 mg/mL); from tissue; host or cells: human liver microsomes
Procedure: as §2, §3, §4

[7] = biological target: T6, CYP3A4 (Homo sapiens, UniProt P08684); assay: as above; format: in vitro ADME; conditions: compound 10 μM; human liver microsomes 0.25 mg/mL; substrate midazolam; 15 minutes
T6 construct: human liver microsomes (0.25 mg/mL); from tissue; host or cells: human liver microsomes
Procedure: as §2, §3, §4

[8] = Liver microsome stability; format: in vitro ADME, human; conditions: amount of substrate remaining; compound 1 μM, 30 minutes, 37° C., NADPH
Procedure: (§5) The stability of liver microsomes due to the compounds prepared according to Examples 1 to 175 was confirmed. Specifically, four types of liver microsomes (human, dog, rat, and mouse, each 0.25 mg/mL), a 0.1 M phosphate buffer solution (pH 7.4), and each of the compounds at a concentration of 1 μM were mixed and pre-cultured at 37° C. for 5 minutes and further cultured at 37° C. for 30 minutes together with an NADPH generation system solution added thereto. Thereafter, the reaction was terminated by adding an acetonitrile solution containing an internal standard material (chloropropamide) and centrifuged for 5 minutes (14,000 rpm, 4° C.), and then a supernatant was injected into an LC-MS/MS system for analysis of substrate drugs to thereby evaluate metabolic stability due to 8 types of compounds.
(§6) The amount of the substrate remaining after the reaction was analyzed using the Shimadzu Nexera XR system and TSQ Vantage (Thermo). In an HPLC column, Kinetex XB-C18 (2.1 mm×100 mm, particle size of 2.6 μm; Phenomenex, USA) was used, and mobile phases were (A) distilled water containing 0.1% formic acid and (B) acetonitrile containing 0.1% formic acid. Analyst software (version 1.6.3) and Xcalibur (version 1.6.1) were used for data analysis.

[9] = Liver microsome stability; format: in vitro ADME, rat; conditions: amount of substrate remaining; compound 1 μM, 30 minutes, 37° C., NADPH
Procedure: as §5, §6

[10] = Liver microsome stability; format: in vitro ADME, mouse; conditions: amount of substrate remaining; compound 1 μM, 30 minutes, 37° C., NADPH
Procedure: as §5, §6

T5 sequence (P10635 whole entry): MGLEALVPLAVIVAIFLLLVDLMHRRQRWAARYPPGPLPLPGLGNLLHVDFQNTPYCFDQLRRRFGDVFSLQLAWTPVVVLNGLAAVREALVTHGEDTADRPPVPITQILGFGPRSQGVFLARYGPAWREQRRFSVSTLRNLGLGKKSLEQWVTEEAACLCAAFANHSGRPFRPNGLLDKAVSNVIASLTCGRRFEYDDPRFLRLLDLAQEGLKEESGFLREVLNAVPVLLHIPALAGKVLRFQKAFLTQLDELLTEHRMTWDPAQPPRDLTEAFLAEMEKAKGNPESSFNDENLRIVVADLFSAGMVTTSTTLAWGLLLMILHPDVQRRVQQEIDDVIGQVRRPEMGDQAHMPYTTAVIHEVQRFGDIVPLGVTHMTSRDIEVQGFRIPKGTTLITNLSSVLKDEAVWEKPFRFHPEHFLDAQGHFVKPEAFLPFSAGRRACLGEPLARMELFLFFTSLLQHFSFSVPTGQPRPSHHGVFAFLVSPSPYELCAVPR
T3 sequence (P33261 whole entry): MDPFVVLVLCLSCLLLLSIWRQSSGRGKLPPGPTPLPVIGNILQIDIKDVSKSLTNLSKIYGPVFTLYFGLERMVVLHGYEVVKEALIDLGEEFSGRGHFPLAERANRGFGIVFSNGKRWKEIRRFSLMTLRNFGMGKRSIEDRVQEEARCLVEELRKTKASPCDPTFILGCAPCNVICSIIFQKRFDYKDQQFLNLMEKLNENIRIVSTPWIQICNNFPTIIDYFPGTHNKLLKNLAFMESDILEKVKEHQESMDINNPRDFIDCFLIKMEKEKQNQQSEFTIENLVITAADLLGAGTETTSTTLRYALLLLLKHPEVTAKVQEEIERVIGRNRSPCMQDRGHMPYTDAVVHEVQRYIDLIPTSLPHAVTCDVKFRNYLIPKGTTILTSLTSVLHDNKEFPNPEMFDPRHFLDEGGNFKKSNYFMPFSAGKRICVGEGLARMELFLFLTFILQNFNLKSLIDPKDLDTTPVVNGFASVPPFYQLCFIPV
T4 sequence (P11712 whole entry): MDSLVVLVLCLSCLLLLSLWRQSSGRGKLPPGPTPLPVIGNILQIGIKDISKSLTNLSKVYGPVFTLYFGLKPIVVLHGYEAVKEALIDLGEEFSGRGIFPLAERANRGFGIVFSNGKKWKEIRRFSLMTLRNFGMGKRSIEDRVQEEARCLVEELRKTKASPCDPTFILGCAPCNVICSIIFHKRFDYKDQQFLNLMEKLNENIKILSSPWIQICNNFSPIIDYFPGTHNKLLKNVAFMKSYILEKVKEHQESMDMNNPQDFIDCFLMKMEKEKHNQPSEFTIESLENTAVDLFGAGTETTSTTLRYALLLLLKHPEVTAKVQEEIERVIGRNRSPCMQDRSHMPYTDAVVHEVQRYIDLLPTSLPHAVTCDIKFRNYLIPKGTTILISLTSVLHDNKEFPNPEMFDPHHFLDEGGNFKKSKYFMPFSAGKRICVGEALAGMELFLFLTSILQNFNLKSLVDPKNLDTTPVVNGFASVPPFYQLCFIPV
T1 sequence (P10636 2-441 isoform P10636-8 limits assumed): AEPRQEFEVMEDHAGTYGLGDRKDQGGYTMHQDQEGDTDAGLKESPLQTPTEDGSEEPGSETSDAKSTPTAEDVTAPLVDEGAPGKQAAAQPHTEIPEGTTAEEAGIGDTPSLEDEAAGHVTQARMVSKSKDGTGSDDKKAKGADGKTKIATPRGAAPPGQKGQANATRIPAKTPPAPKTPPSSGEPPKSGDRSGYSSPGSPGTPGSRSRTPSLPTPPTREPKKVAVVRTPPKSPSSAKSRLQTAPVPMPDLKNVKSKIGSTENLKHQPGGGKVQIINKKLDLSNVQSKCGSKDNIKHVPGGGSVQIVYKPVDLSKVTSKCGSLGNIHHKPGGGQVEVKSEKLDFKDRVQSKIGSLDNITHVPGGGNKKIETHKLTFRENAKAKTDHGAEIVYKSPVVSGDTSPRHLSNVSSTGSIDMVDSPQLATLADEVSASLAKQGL
T6 sequence (P08684 whole entry): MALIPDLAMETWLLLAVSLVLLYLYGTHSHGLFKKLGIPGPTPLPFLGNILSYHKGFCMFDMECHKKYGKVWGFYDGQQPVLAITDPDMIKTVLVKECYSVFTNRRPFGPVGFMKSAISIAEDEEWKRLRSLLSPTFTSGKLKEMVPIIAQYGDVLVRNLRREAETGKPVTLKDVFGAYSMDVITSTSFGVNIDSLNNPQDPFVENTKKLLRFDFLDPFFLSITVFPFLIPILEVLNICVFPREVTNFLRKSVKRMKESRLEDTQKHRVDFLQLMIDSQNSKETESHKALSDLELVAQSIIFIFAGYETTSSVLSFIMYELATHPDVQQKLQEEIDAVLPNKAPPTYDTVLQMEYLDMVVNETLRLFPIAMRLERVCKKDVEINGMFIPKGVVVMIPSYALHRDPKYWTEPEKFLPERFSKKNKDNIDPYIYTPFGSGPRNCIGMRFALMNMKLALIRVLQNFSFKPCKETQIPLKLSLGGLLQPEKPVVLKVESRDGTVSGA

Row | SMILES | remaining activity at 10 µM [1] | IC50 [1] | Cell viability (% @10 μM) [2] | CYP1A2 [3] | CYP2C19 [4] | CYP2C9 [5] | CYP2D6 [6] | CYP3A4 [7] | remaining activity at 3 µM [1] | Cell viability [2] | Human (%) [8] | Rat (%) [9] | Mouse (%) [10]
1 | Cc1ccc(C(=O)Nc2ccc(NN=C(C#N)C#N)cn2)cc1 [Compound 23, (6-(4-methylbenzamido)pyridin-3-yl)carbonohydrazonoyl dicyanide] | 0% | 130 nM | 114.2% | 85 | 82.5 | 40.6 | >100 | 83.3 | – | – | – | – | –
2 | N#CC(C#N)=NNc1ccc(OCc2cccnc2)cc1 [Compound 124, (4-(pyridin-3-ylmethoxy)phenyl)carbonohydrazonoyl dicyanide] | 0% | 620 nM | 140.9% | 23.4 | 69.9 | 4.4 | 46.6 | 37.5 | – | – | – | – | –
3 | N#CC(C#N)=NNc1ccc(OCc2ncccn2)cc1 [Compound 136, (4-(pyrimidin-2-ylmethoxy)phenyl)carbonohydrazonoyl dicyanide] | 0% | 1440 nM | 95.7% | 80.3 | 76.5 | 70 | 94.4 | 88.9 | – | – | – | – | –
4 | N#CC(C#N)=NNc1ccc(OCc2cn[nH]c2)cc1 [Compound 137, (4-((1H-pyrazol-4-yl)methoxy)phenyl)carbonohydrazonoyl dicyanide] | – | – | – | >100 | >100 | 37 | >100 | 84.8 | 31% | 129% | – | – | –
5 | Cc1cnc(COc2ccc(NN=C(C#N)C#N)cc2)cn1 [Compound 138, (4-((5-methylpyrazin-2-yl)methoxy)phenyl)carbonohydrazonoyl dicyanide] | – | – | – | 97.4 | >100 | 92.5 | 92.7 | 89.4 | 15% | 133% | – | – | –
6 | CC(Oc1ccc(NN=C(C#N)C#N)cc1)c1cccnc1 (stereo not drawn) [Compound 140, (4-(1-(pyridin-3-yl)ethoxy)phenyl)carbonohydrazonoyl Dicyanide] | – | – | – | 96.7 | >100 | 11.7 | 69.6 | 30.8 | 18% | 135% | – | – | –
7 | Cc1cc(NN=C(C#N)C#N)ccc1OCc1cc[nH]n1 [Compound 151, (4-((1H-pyrazol-3-yl)methoxy)-3-methylphenyl)carbonohydrazonoyl dicyanide] | – | 22 nM | – | 51.8 | >100 | 19.4 | 94.8 | 88 | -32% | 126% | – | – | –
8 | COc1cc(NN=C(C#N)C#N)ccc1OCc1ccccc1 [Compound 153, (4-(benzyloxy)-3-methoxyphenyl)carbonohydrazonoyl dicyanide] | – | 37 nM | – | 67.9 | 100 | 44.1 | 90.7 | 98.9 | -43% | 122% | – | – | –
9 | COc1cc(NN=C(C#N)C#N)ccc1OCc1ccc(C)cc1 [Compound 154, (3-methoxy-4-(4-methylbenzyloxy)phenyl)carbonohydrazonoyl dicyanide] | – | 32 nM | – | 79.1 | 76.3 | 26.6 | 81.7 | 72.5 | -52% | 106% | – | – | –
10 | COc1cc(NN=C(C#N)C#N)ccc1OCc1cnccn1 [Compound 159, (3-methoxy-4-(pyrazin-2-ylmethoxy)phenyl)carbonohydrazonoyl dicyanide] | – | 7 nM | – | 42.4 | 88 | 54.7 | 86.1 | 82.1 | -40% | 114% | – | – | –
11 | COc1cc(NN=C(C#N)C#N)ccc1OCc1cccnc1 [Compound 160, (3-methoxy-4-(pyridin-3-ylmethoxy)phenyl)carbonohydrazonoyl dicyanide] | – | 7 nM | – | 5.8 | 68.5 | 6.5 | 59.7 | 17.9 | -33% | 111% | – | – | –
12 | COc1cc(NN=C(C#N)C#N)ccc1OCc1cnc(C)cn1 [Compound 162, (3-methoxy-4-((5-methylpyrazin-2-yl)methoxy)phenyl)carbonohydrazonoyl dicyanide] | – | 49 nM | – | 79.8 | 75.9 | 73.5 | 70.3 | 73.3 | -25% | 115% | – | – | –
13 | COc1cc(NN=C(C#N)C#N)ccc1OCc1nc2ccccc2o1 [Compound 166, (4-(benzo[d]oxazol-2-ylmethoxy)-3-methoxyphenyl)carbonohydrazonoyl dicyanide] | – | 214 nM | – | – | – | – | – | – | -43% | 121% | 6.6% | 6.5% | 68.1%
14 | COc1cc(NN=C(C#N)C#N)ccc1OCc1cc[nH]n1 [Compound 168, (4-((1H-pyrazol-3-yl)methoxy)-3-methoxyphenyl)carbonohydrazonoyl dicyanide] | – | 132 nM | – | – | – | – | – | – | -17% | 123% | 54.8% | 44% | 77.8%
